{
  "source": "paper PMC8329197",
  "about": "“Compounds targeting OSBPL7 increase ABCA1-dependent cholesterol efflux preserving kidney function in two models of kidney disease” (Nature Communications, 2021)",
  "key": {"[1]": {"system": "Adriamycin (ADR)-induced nephropathy in Balb/c mice", "experiment": "Adriamycin-induced nephropathy, main study: albumin/creatinine ratio and body weight"}, "[2]": {"system": "ABCA1 protein", "experiment": "Cell fractionation: ABCA1 in plasma membrane and microsomal fractions of podocytes", "type": "cell-based, human", "settings": "ratio; Cpd C 1 µM, Cpd A 5 µM, Cpd G 10 µM; single preparations", "description": "Lysates, or cell fractions were incubated in Laemmli buffer at 55 °C for 10 min under reducing conditions. A total of 30 μg of protein from cell lysates or one-third of the volume collected in cell fraction preparations was separated by SDS-PAGE in 4–20% gradient gels (Biorad) and proteins were then transferred to PVDF membranes. After blocking with 5% TBS-milk, membranes were probed with primary antibodies overnight at 4 °C. The following primary antibodies were used: mouse anti-ABCA1 (Abcam; 1:1000), rabbit anti-GAPDH antibody (Millipore; 1:10,000), mouse anti-actin (CP01, Millipore 1:10,000), anti-MEK, anti-ERp72, anti-V5 and anti-Na^+/K^+ ATPase (Cell Signaling; all 1:1000), and rabbit anti-OSBPL7 (Sigma; 1:1000). After washing, membranes were incubated with anti-rabbit or and anti-mouse IgG-HRP antibodies (Promega, 1:10,000). Signals were detected after incubation with Westernbright ECL HRP substrate (Advansta) and luminescence signals were captured with Azure C600 Gel Imaging workstation (Azure Biosystems Inc, USA) or X-ray films.\nDifferentiated podocytes were treated with compounds Cpd C (1 μM), Cpd A (5 μM), or Cpd G (10 μM) for 18 h, washed and then harvested in ice-cold PBS. Cells were centrifuged at 1000 × g for 5 min, the supernatant was carefully removed, and the pellet resuspended in hypotonic buffer (15 mM KCl, 1.5 mM MgCl2, 10 mM HEPES and 1 mM DTT) supplemented with a protease inhibitor cocktail (Roche). Cells were disrupted with a glass douncer, and sucrose was added to achieve final concentration of 227 mM. Cell lysates were centrifuged at 1000 × g for 30 min at 4 °C. The supernatant was then transferred to a new tube and centrifuged at 10,000 × g for 15 min at 4 °C. The pellet, containing the microsomal fraction was collected and the supernatant was transferred to a new tube and centrifuged at 100,000 × g for 1 h at 4 °C. The pelleted plasma membrane fraction was collected and the supernatant, containing the organelle-free cytosolic fraction, was concentrated in Vivaspin 500 filter columns. Western blot was performed using antibodies for ABCA1 and specific markers for each membrane fraction as described above. Na^+/K^+ ATPase was used to identify the plasma membrane fraction, ERp72 as a marker for the microsomal-enriched fraction, and MEK as the control for the non-membranous cytosolic fraction."}, "[3]": {"system": "Adriamycin (ADR)-induced nephropathy in Balb/c mice", "experiment": "ADR nephropathy: liver total cholesterol, cholesterol esters, triglycerides", "type": "in vivo, mouse"}, "[4]": {"system": "Adriamycin (ADR)-induced nephropathy in Balb/c mice", "experiment": "ADR nephropathy: WBC, hemoglobin, hematocrit, ALT, AST", "type": "in vivo, mouse", "settings": "ADR-induced nephropathy"}, "[5]": {"settings": "28 days treatment, 25th quartile"}, "[6]": {"settings": "28 days treatment, 75th quartile"}, "[7]": {"settings": "28 days treatment, group maximum"}, "[8]": {"settings": "28 days treatment, group median"}, "[9]": {"settings": "28 days treatment, group minimum"}, "[10]": {"settings": "28 days treatment, individual mouse values"}},
  "note": "Several values for one entry are separate records, joined by “and”; a condition that tells them apart may be missing. Identical values can stand only once.",
  "data": [
    {"smiles": "Cc1oc(-c2cccc(C(F)(F)F)c2)nc1Cn1c(C)cc2cc(C(O)(C(F)(F)F)C(F)(F)F)ccc21", "note": "[Cpd C, reference compound]", "values": [
      {"measurement": "Effect on weight loss", "setting": "[1]; 28 days after ADR", "result": "no significant effect to prevent weight loss"},
      {"measurement": "ACR, median", "setting": "[1]; 28 days after ADR, Cpd A 30, Cpd G 100, Cpd C 10 mg/Kg, group median", "result": 6.591, "unit": "mg albumin/mg creatinine"},
      {"measurement": "Reduction in ACR", "setting": "[1]; Cpd C 10 mg/Kg, 28 days", "result": "more variable reduction in ACR"},
      {"measurement": "Weight (d28)", "setting": "[1]; animal weight when therapy finished, single animals", "result": "19 and 13 and 20 and 16 and 22 and 17 and 18"},
      {"measurement": "Weight Change (as % of weight at day 0), Median", "setting": "[1]; day 28 after ADR, Cpd A 30, Cpd G 100, Cpd C 10 mg/Kg", "result": -5, "unit": "%"},
      {"measurement": "Weight Change (as % of weight at day 0)", "setting": "[1]; day 28 after ADR, Cpd A 30, Cpd G 100, Cpd C 10 mg/Kg, single animals", "result": "5.3% and 5.6% and -15.8% and 4.8% and -15% and 0% and -10% and -5% and -27.8%"},
      {"measurement": "ACR values (mg Albumin / mg Creatinine)", "setting": "[1]; spot urine 28 days after ADR, oral daily Cpd A 30, Cpd G 100, Cpd C 10 mg/Kg, single animals", "result": "97.01 mg Albumin / mg Creatinine and 0.196 mg Albumin / mg Creatinine and 5.6 mg Albumin / mg Creatinine and 6.591 mg Albumin / mg Creatinine and 5.609 mg Albumin / mg Creatinine and 28.989 mg Albumin / mg Creatinine and 87.25 mg Albumin / mg Creatinine and 19.88 mg Albumin / mg Creatinine and 5.463 mg Albumin / mg Creatinine"},
      {"measurement": "MICROSOMAL FRACTION:ABCA1/ERp72", "setting": "[2]", "result": "1.10 and 1.82 and 1.06"},
      {"measurement": "PLASMA MEMBRANE FRACTION: ABCA1/NaK ATPase", "setting": "[2]", "result": "1.10 and 0.65 and 0.77 and 1.14"},
      {"measurement": "LIVER CHOLESTEROL ESTERS", "setting": "[3]; ADR model, individual animals", "result": "3.92 nmol CE/ mg protein and 1.48 nmol CE/ mg protein and 3.2 nmol CE/ mg protein and 3.1 nmol CE/ mg protein"},
      {"measurement": "LIVER TOTAL CHOLESTEROL", "setting": "[3]; ADR model, individual animals", "result": "132 nmol Cholesterol/ mg protein and 89 nmol Cholesterol/ mg protein and 311 nmol Cholesterol/ mg protein and 91 nmol Cholesterol/ mg protein"},
      {"measurement": "LIVER TRIGLICERIDES", "setting": "[3]; ADR model, individual animals", "result": "48.5 nmol Triglycerides/ mg protein and 45 nmol Triglycerides/ mg protein and 67 nmol Triglycerides/ mg protein and 56 nmol Triglycerides/ mg protein"},
      {"measurement": "Hepatic triglyceride content vs. vehicle-treated controls", "setting": "[3]; ADR-challenged, 28 days", "result": "increased hepatic triglyceride content"},
      {"measurement": "ALT, Median (IQR)", "setting": "[4]", "result": "146 (71-682) U/L"},
      {"measurement": "ALT, Range", "setting": "[4]", "result": "68-838 U/L"},
      {"measurement": "AST, Median (IQR)", "setting": "[4]", "result": "165 (104-371) U/L"},
      {"measurement": "AST, Range", "setting": "[4]", "result": "90-433 U/L"},
      {"measurement": "HTC, Median (IQR)", "setting": "[4]", "result": "55 (45-64) %"},
      {"measurement": "HTC, Range", "setting": "[4]", "result": "43-65%"},
      {"measurement": "Hgb, Median (IQR)", "setting": "[4]", "result": 13.3, "unit": "g/dL"},
      {"measurement": "Hgb, Range", "setting": "[4]", "result": "11 to 15.9", "unit": "g/dL"},
      {"measurement": "WBC, Median (IQR)", "setting": "[4]", "result": "6.2 (5.5-7.9) x103cells/µL"},
      {"measurement": "WBC, Range", "setting": "[4]", "result": "5.4-8.3 x103cells/µL"},
      {"measurement": "ALT, QR(25)", "setting": "[4]; [5]", "result": 76.25, "unit": "U/L"},
      {"measurement": "AST, QR(25)", "setting": "[4]; [5]", "result": 131.25, "unit": "U/L"},
      {"measurement": "HTC, QR(25)", "setting": "[4]; [5]", "result": 46, "unit": "%"},
      {"measurement": "Hgb, QR(25)", "setting": "[4]; [5]", "result": 12.5, "unit": "g/dL"},
      {"measurement": "WBC, QR(25)", "setting": "[4]; [5]", "result": "6.4 x 10^3 cells/ul"},
      {"measurement": "ALT, QR(75)", "setting": "[4]; [6]", "result": 369.25, "unit": "U/L"},
      {"measurement": "AST, QR(75)", "setting": "[4]; [6]", "result": 246.25, "unit": "U/L"},
      {"measurement": "HTC, QR(75)", "setting": "[4]; [6]", "result": 64, "unit": "%"},
      {"measurement": "Hgb, QR(75)", "setting": "[4]; [6]", "result": 15.4, "unit": "g/dL"},
      {"measurement": "WBC, QR(75)", "setting": "[4]; [6]", "result": "10.3 x 10^3 cells/ul"},
      {"measurement": "ALT, Max", "setting": "[4]; [7]", "result": 838, "unit": "U/L"},
      {"measurement": "AST, Max", "setting": "[4]; [7]", "result": 433, "unit": "U/L"},
      {"measurement": "HTC, Max", "setting": "[4]; [7]", "result": 65, "unit": "%"},
      {"measurement": "Hgb, Max", "setting": "[4]; [7]", "result": 15.9, "unit": "g/dL"},
      {"measurement": "WBC, Max", "setting": "[4]; [7]", "result": "11.6 x 10^3 cells/ul"},
      {"measurement": "ALT, Median", "setting": "[4]; [8]", "result": 146, "unit": "U/L"},
      {"measurement": "AST, Median", "setting": "[4]; [8]", "result": 164.5, "unit": "U/L"},
      {"measurement": "HTC, Median", "setting": "[4]; [8]", "result": 55, "unit": "%"},
      {"measurement": "Hgb, Median", "setting": "[4]; [8]", "result": 13.3, "unit": "g/dL"},
      {"measurement": "WBC, Median", "setting": "[4]; [8]", "result": "6.7 x 10^3 cells/ul"},
      {"measurement": "ALT, Min", "setting": "[4]; [9]", "result": 68, "unit": "U/L"},
      {"measurement": "AST, Min", "setting": "[4]; [9]", "result": 90, "unit": "U/L"},
      {"measurement": "HTC, Min", "setting": "[4]; [9]", "result": 43, "unit": "%"},
      {"measurement": "Hgb, Min", "setting": "[4]; [9]", "result": 11, "unit": "g/dL"},
      {"measurement": "WBC, Min", "setting": "[4]; [9]", "result": "5.4 x 10^3 cells/ul"},
      {"measurement": "Alanine Aminotransferase (ALT)", "setting": "[4]; [10]", "result": "213 U/dL and 68 U/dL and 79 U/dL and 838 U/dL"},
      {"measurement": "Aspartate Aminotransferase (AST)", "setting": "[4]; [10]", "result": "184 U/dL and 90 U/dL and 145 U/dL and 433 U/dL"},
      {"measurement": "Hematocrit HTC", "setting": "[4]; [10]", "result": "64% and 65% and 55% and 46% and 43% and 44%"},
      {"measurement": "White Blood Cells WBC", "setting": "[4]; [10]", "result": "10.3 x 10^3 cells/ul and 6.7 x 10^3 cells/ul and 6.5 x 10^3 cells/ul and 5.9 x 10^3 cells/ul and 5.4 x 10^3 cells/ul and 8.3 x 10^3 cells/ul and 6.4 x 10^3 cells/ul and 11.6 x 10^3 cells/ul"}
    ]}
  ]
}
